Measurements published in patent US8524707B2, “Bicyclic pyrazoles as protein kinase inhibitors” (Nerviano Medical Sciences S.r.l., priority 2008, dated 2013).
Where two headings read alike, the source gives them in different places.

What was measured:
Assay type in all cases: cell-based
[1] = tested on: human melanoma cells A375 (with a mutated B-RAF); test: In vitro cell proliferation assay, A375; conditions: A-375, 72 hours, cellular ATP monitoring
Experimental: (§1) Exponentially growing human melanoma cells A375 (with a mutated B-RAF) and human melanoma cells Mewo (with wild-type B-Raf) were seeded and incubated at 37° C. in a humidified 5% CO2 atmosphere. After 24 hours, scalar doses of the compound were added to the medium and cells oncubated for 72 hours. At the end of treatment, cells were washed and counted. Cell number was determined by a cellular adenosine triphosphate monitoring system. Cell proliferation was compared to control cells and the concentration inhibiting cell growth by 50% was calculated.

[2] = tested on: human melanoma cells Mewo (with wild-type B-Raf); test: In vitro cell proliferation assay, Mewo; conditions: 72 hours, cellular ATP monitoring
Experimental: as §1

[3] = tested on: p-MAPK (T202/Y204) in A375 human melanoma cells, having a mutated B-RAF; test: p-MAPK (T202/Y204) ArrayScan assay
Experimental: A375 human melanoma cells, having a mutated B-RAF, are seeded in 384-well poly-lysine coated plates (Matrix) at a density of 1000 cells/well with appropriate medium supplemented with 10% FCS and incubated for 16-24 hours. Cells are treated for 1.5 or 2 hours with increasing doses of compounds (starting dose 10 μM, dilution factor 2.5). At the end of the treatment cells are fixed with p-formaldehyde 3.7% for 15-30 min, then washed twice with D-PBS ([…]) and permeabilized with D-PBS containing 0.1% Triton X-100 and 1% BSA (Sigma-Aldrich) for 15 minutes at room temperature (staining solution). […] After removal of antibody solution, the anti-mouse Cy™2-conjugated (Green) secondary antibody (Amersham) diluted 1:500 in staining solution containing […] DAPI is added. The plate is incubated for 1 hour at 37° C., washed twice and red with Cellomics' ArrayScan VTI (4 fields/well, CytoNucTrans algorithm).
The parameter “MEAN_RingAvgIntenCh2”, which measures the mean cytoplasmatic fluorescence intensity associated to p-MAPK staining, is reported as the final result.

[4] = A-375, A375 cells treated 1.5 or 2 hours, p-MAPK staining, MEAN_RingAvgIntenCh2, read-out: Array Scan A375 IC50
[5] = A-375, read-out: Array Scan A375 IC50

Row | IC50 [1] | IC50 [2] | IC50 [3, 4] | Compound | IC50 [3, 5]
1 | 2.48 µM | 3.59 µM | 7.37 µM | O=C(Nc1ccc(Cl)cc1)Nc1cccc(-c2nn3c(c2-c2ccncc2)SCCC3)c1 [compound 1, 1-(4-chloro-phenyl)-3-[3-(3-pyridin-4-yl-6,7-dihydro-5H-pyrazolo[5,1-b][1,3]thiazin-2-yl)-phenyl]-urea] | –
2 | 3.69 µM | 7.25 µM | 5.57 µM | Cc1ccc(NC(=O)Nc2cccc(-c3nn4c(c3-c3ccncc3)SCCC4)c2)cc1 [compound 2, 1-[3-(3-pyridin-4-yl-6,7-dihydro-5H-pyrazolo[5,1-b][1,3]thiazin-2-yl)-phenyl]-3-p-tolyl-urea] | –
3 | 0.91 µM | 2.54 µM | 0.77 µM | O=C(Nc1ccc(C(F)(F)F)cc1)Nc1cccc(-c2nn3c(c2-c2ccncc2)SCCC3)c1 [compound 3, 1-[3-(3-pyridin-4-yl-6,7-dihydro-5H-pyrazolo[5,1-b][1,3]thiazin-2-yl)-phenyl]-3-(4-trifluoromethyl-phenyl)-urea] | –
4 | 7.51 µM | > 10 µM | 1.62 µM | O=S(=O)(Nc1cccc(-c2nn3c(c2-c2ccncc2)SCCC3)c1)c1cccc(F)c1 [compound 4, 3-fluoro-N-[3-(3-pyridin-4-yl-6,7-dihydro-5H-pyrazolo[5,1-b][1,3]thiazin-2-yl)-phenyl]-benzenesulfonamide] | –
5 | 2.33 µM | 5.95 µM | 1.38 µM | O=C(Nc1ccc(Cl)cc1)Nc1cccc(-c2nn3c(c2-c2ccncc2)SCC3)c1 [compound 6, 1-(4-chloro-phenyl)-3-[3-(7-pyridin-4-yl-2,3-dihydro-pyrazolo[5,1-b]thiazol-6-yl)-phenyl]-urea] | –
6 | 0.95 µM | > 10 µM | 0.75 µM | Oc1cccc(-c2nn3c(c2-c2ccncc2)SCC3)c1 [compound 7, 3-(7-pyridin-4-yl-2,3-dihydro-pyrazolo[5,1-b]thiazol-6-yl)-phenol] | –
7 | 1.28 µM | 4.29 µM | 0.46 µM | O=S(=O)(Nc1cccc(-c2nn3c(c2-c2ccncc2)SCCC3)c1)c1cc(F)ccc1F [compound 9, 2,5-difluoro-N-[3-(3-pyridin-4-yl-6,7-dihydro-5H-pyrazolo[5,1-b][1,3]thiazin-2-yl)-phenyl]-benzenesulfonamide] | –
8 | 1.98 µM | > 10 µM | 0.62 µM | O=S1(=O)CCn2nc(-c3cccc(O)c3)c(-c3ccncc3)c21 [compound 10, 3-(1,1-dioxo-7-pyridin-4-yl-2,3-dihydro-pyrazolo[5,1-b]thiazol-6-yl)-phenol] | –
9 | 0.66 µM | > 10 µM | 0.26 µM | O=S(=O)(Nc1cccc(-c2nn3c(c2-c2ccncc2)SCC3)c1)c1cc(F)ccc1F [compound 11, 2,5-difluoro-N-[3-(7-pyridin-4-yl-2,3-dihydro-pyrazolo[5,1-b]thiazol-6-yl)-phenyl]-benzenesulfonamide] | –
10 | 3.88 µM | > 10 µM | 6.39 µM | O=C(Cc1ccc(C(F)(F)F)cc1)Nc1cccc(-c2nn3c(c2-c2ccncc2)SCCC3)c1 [compound 12, N-[3-(3-pyridin-4-yl-6,7-dihydro-5H-pyrazolo[5,1-b][1,3]thiazin-2-yl)-phenyl]-2-(4-trifluoromethyl-phenyl)-acetamide] | –
11 | 9.28 µM | > 10 µM | 3.03 µM | O=S(=O)(Nc1cccc(-c2nn3c(c2-c2ccncc2)SCCC3)c1)c1ccco1 [compound 13, furan-2-sulfonic acid [3-(3-pyridin-4-yl-6,7-dihydro-5H-pyrazolo[5,1-b][1,3]thiazin-2-yl)-phenyl]-amide] | –
12 | 7.07 µM | > 10 µM | 4.69 µM | O=S(=O)(Nc1cccc(-c2nn3c(c2-c2ccncc2)SCCC3)c1)c1ccsc1 [compound 14, thiophene-3-sulfonic acid [3-(3-pyridin-4-yl-6,7-dihydro-5H-pyrazolo[5,1-b][1,3]-thiazin-2-yl)-phenyl]-amide] | –
13 | 0.68 µM | 3.09 µM | 0.48 µM | CC(C)(C)c1ccc(NC(=O)c2cccc(-c3nn4c(c3-c3ccncc3)SCC4)c2)cc1 [compound 15, N-(4-tert-butyl-phenyl)-3-(7-pyridin-4-yl-2,3-dihydro-pyrazolo[5,1-b]thiazol-6-yl)-benzamide] | –
14 | 1.34 µM | > 10 µM | 1.17 µM | NC(=O)c1csc2c(-c3ccncc3)c(-c3cccc(NS(=O)(=O)c4cc(F)ccc4F)c3)nn12 [compound 17, 6-[3-(2,5-difluoro-benzenesulfonylamino)-phenyl]-7-pyridin-4-yl-pyrazolo[5,1-b]thiazole-3-carboxylic acid amide] | –
15 | 2.16 µM | > 10 µM | 2.29 µM | CC(C)(C)c1ccc(NC(=O)Nc2cccc(-c3nn4c(c3-c3ccncc3)SCC4)c2)cc1 [compound 18, 1-(4-tert-butyl-phenyl)-3-[3-(7-pyridin-4-yl-2,3-dihydro-pyrazolo[5,1-b]thiazol-6-yl)-phenyl]-urea] | –
16 | 7.68 µM | > 10 µM | 4.69 µM | O=C(Nc1ccc(C(F)(F)F)cc1)Nc1cccc(-c2nn3c(c2-c2ccncc2)[S+]([O-])CC3)c1 (stereo not drawn) [compound 19, 1-[3-(1-oxo-7-pyridin-4-yl-2,3-dihydro-pyrazolo[5,1-b]thiazol-6-yl)-phenyl]-3-(4-trifluoromethyl-phenyl)-urea] | –
17 | 1.17 µM | > 10 µM | 0.36 µM | Oc1cccc(-c2nn3ccsc3c2-c2ccncc2)c1 [compound 20, 3-(7-pyridin-4-yl-pyrazolo[5,1-b]thiazol-6-yl)-phenol] | –
18 | 3.13 µM | > 10 µM | 0.21 µM | O=S(=O)(Nc1cccc(-c2nn3ccsc3c2-c2ccncc2)c1)c1cc(F)ccc1F [compound 21, 2,5-difluoro-N-[3-(7-pyridin-4-yl-pyrazolo[5,1-b]thiazol-6-yl)-phenyl]-benzenesulfonamide] | –
19 | 1.03 µM | 5.41 µM | 0.44 µM | O=C(Nc1ccc(C(F)(F)F)cc1)Nc1cccc(-c2nn3ccsc3c2-c2ccncc2)c1 [compound 22, 1-[3-(7-pyridin-4-yl-pyrazolo[5,1-b]thiazol-6-yl)-phenyl]-3-(4-trifluoromethyl-phenyl)-urea] | –
20 | 0.29 µM | > 10 µM | 0.02 µM | O=S(=O)(Nc1ccc(F)c(-c2nn3c(c2-c2ccncc2)SCC3)c1F)c1cc(F)ccc1F [compound 23, N-[2,4-difluoro-3-(7-pyridin-4-yl-2,3-dihydro-pyrazolo[5,1-b]thiazol-6-yl)-phenyl]-2,5-difluoro-benzenesulfonamide] | –
21 | 1.23 µM | 5.09 µM | 1.46 µM | O=C(Nc1ccc(C(F)(F)F)cc1)c1cccc(-c2nn3c(c2-c2ccncc2)SCC3)c1 [compound 24, 3-(7-pyridin-4-yl-2,3-dihydro-pyrazolo[5,1-b]thiazol-6-yl)-N-(4-trifluoromethyl-phenyl)-benzamide] | –

Row | Compound | IC50 [1] | IC50 [2] | IC50 [3, 4] | IC50 [3, 5]
22 | O=C(Nc1ccc(C(F)(F)F)cc1)Nc1cccc(-c2nn3c(c2-c2ccncc2)SCC3)c1 [compound 5, 1-[3-(7-pyridin-4-yl-2,3-dihydro-pyrazolo[5,1-b]thiazol-6-yl)-phenyl]-3-(4-trifluoromethyl-phenyl)urea] | 0.43 µM | 2.63 µM | – | 0.6 µM
23 | Oc1cccc(-c2nn3c(c2-c2ccncc2)SCCC3)c1 [compound 8, 3-(3-pyridin-4-yl-6,7-dihydro-5H-pyrazolo[5,1-b][1,3]thiazin-2-yl)-phenol] | 1.51 µM | > 10 µM | – | 2.04 µM
